# Reference: patent publication US7423149B2, “Substituted n-aryl amidines as selective D1 dopamine receptor antagonists for the treatment of obesity and CNS disorders” (Schering Corporation, priority 2003, dated 2008)
# Target: T1, human Dopamine D1 receptor (Homo sapiens, UniProt P21728)
# T1 construct: expressed in transfected cells; host or cells: Ltk- cells (mouse fibroblasts), membrane preparation
# Assay: radioligand binding competition assay, displacement of [3H]SCH 23390 from D1 receptor (Ltk-cells membranes);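 as to D1 binding and D2:D1 Selectivity: under 5 nM class also requires D2 to D1 selectivity above 500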
# Settings: class combines Ki (D1) and, for A and B, D2:D1 selectivity (Ki D2 / Ki D1); read-out: D1 binding and D2:D1 Selectivity
# Source text: (§1) Biological Activity: Compounds from this disclosure have been biologically characterized by their ability to displace a known D1-like selective ligand, [3H]SCH 23390 from the human Dopamine D1 receptor, and a known D2-like selective ligand, [3H] Methylspiperone, from the human Dopamine D2 and D4 receptors.
# (§2) Affinity values (Ki) of compounds at human dopamine receptors were ascertained using radioligand binding competition assays. Cells expressing D1 (Ltk-cells), D2 (long variant, Ltk-cells), D4 (CHO cells) and D5 (GH4C1 cells) receptors were lysed in hypotonic buffer for membrane preparation. Membranes were incubated with various concentrations of test compound and 1 nM [3H] SCH 23390 (D1 and D5) and 0.2 nM [3H] Methylspiperone for (D2 and D4) assays. Non-specific binding was defined as binding in the presence of 10 micromolar of SCH 23390 for D1 and D5 assays and 10 micromolar butaclamol for D2 and D4 assays. Following incubation to equilibrium (1 hour at room temperature), bound radioligand was separated from free by rapid filtration. Bound radioactivity on the dried filters was quantified by liquid scintillation counting.
# (§3) Selectivity is determined by dividing Ki for D2, D4 or D5 receptors by Ki for D1 receptor.
# T1 sequence (P21728 whole entry): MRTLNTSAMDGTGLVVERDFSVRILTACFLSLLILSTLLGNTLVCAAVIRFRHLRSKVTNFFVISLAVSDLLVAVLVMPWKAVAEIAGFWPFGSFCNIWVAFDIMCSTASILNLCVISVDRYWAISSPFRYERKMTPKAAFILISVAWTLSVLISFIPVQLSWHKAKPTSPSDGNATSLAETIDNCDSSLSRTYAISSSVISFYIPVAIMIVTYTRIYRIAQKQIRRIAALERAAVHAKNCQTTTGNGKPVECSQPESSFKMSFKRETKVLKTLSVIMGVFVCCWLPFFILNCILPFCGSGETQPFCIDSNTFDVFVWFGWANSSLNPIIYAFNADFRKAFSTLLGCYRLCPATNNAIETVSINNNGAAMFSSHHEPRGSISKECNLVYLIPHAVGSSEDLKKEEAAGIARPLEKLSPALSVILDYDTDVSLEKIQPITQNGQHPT
row,Compound,Ki
1,"N=C(/C=C/c1ccc(N2CCNCC2)cc1Cl)Nc1ccc(Cl)cc1 [Example 42, (E)-N-(4-Chlorophenyl)-3-[2-chloro-4(piperazin-1-yl)phenyl]-2-propenimidamide]",< 5 nM
2,N=C(/C=C/c1ccc(-n2ccnc2)cc1)Nc1ccc(Cl)cc1 [Example 88],50 to 10000 nM
3,N=C(Nc1ccc(Cl)cc1)c1ccc2[nH]ccc2c1 [Example 89],50 to 10000 nM
4,N=C(/C=C/c1ccc(N2CCCC2)cc1)Nc1ccc(Cl)cc1 [Example 90],50 to 10000 nM
5,COc1ccc(/C=C/C(=N)Nc2cccc(C#N)c2)cc1 [Example 91],50 to 10000 nM
6,N=C(/C=C/c1ccc(O)c(Cl)c1)Nc1ccc(Cl)cc1 [Example 92],50 to 10000 nM
7,N=C(/C=C/c1ccc(N2CCN(c3cccc(Cl)c3)CC2)cc1)Nc1ccc(Cl)cc1 [Example 93],50 to 10000 nM
8,"COc1cccc2ccc(C(=N)Nc3ccc(Cl)cc3)nc12 [Example 94, N-(4-chloro-phenyl)-8-methoxy-quinoline-2-carboxamidine]",50 to 10000 nM
9,Cc1ccc(C)n1-c1ccc(/C=C/C(=N)Nc2ccc(Cl)cc2)cc1 [Example 95],50 to 10000 nM
10,COc1ccc(NC(=N)/C=C/c2ccc(N3CCNCC3)cc2Cl)cc1Cl [Example 96],50 to 10000 nM
11,N=C(Nc1ccc(Cl)cc1)c1ccc2cc(N3CCN(C4CCCCC4)CC3)ccc2c1 [Example 97],50 to 10000 nM
12,N=C(/C=C/c1ccc(N)cc1)Nc1ccc(Cl)cc1 [Example 98],50 to 10000 nM
13,N=C(/C=C/c1ccc(-c2cc(F)cc(F)c2)cc1)Nc1ccc(Cl)cc1 [Example 99],50 to 10000 nM
14,CCn1c2ccccc2c2cc(/C=C/C(=N)Nc3ccc(Cl)cc3)ccc21 [Example 100],50 to 10000 nM
15,CN(C)c1ccc(/C=C/C(=N)Nc2ccc(Cl)cc2)c2ccccc12 [Example 101],50 to 10000 nM
16,N=C(/C=C/c1ccc(Cl)c(Cl)c1)Nc1ccc(Cl)cc1 [Example 102],50 to 10000 nM
17,N=C(/C=C/c1c(Cl)cccc1Cl)Nc1ccc(Cl)cc1 [Example 103],50 to 10000 nM
18,N=C(/C=C/c1ccc(N2CCN(c3ccccc3)CC2)cc1)Nc1ccc(Cl)cc1 [Example 104],50 to 10000 nM
19,N=C(/C=C/c1ccc2c(c1)OCCO2)Nc1ccc(Cl)cc1 [Example 105],50 to 10000 nM
20,"N=C(Nc1ccc(Cl)cc1)c1ccc2cc(O)ccc2c1 [Example 106, N-(4-chloro-phenyl)-6-hydroxy-naphthalene-2-carboxamidine]",50 to 10000 nM
21,COc1ccc(-c2ccc(/C=C/C(=N)Nc3ccc(Cl)cc3)cc2)cc1OC [Example 107],50 to 10000 nM
22,N=C(/C=C/c1ccc(CN2CCCC2)cc1)Nc1ccc(Cl)cc1 [Example 108],50 to 10000 nM
23,N=C(/C=C/c1cc(Cl)cc(Cl)c1)Nc1ccc(Cl)cc1 [Example 109],50 to 10000 nM
24,N=C(/C=C/c1ccc(CNCc2ccccc2)cc1)Nc1ccc(Cl)cc1 [Example 110],50 to 10000 nM

row,Compound,Ki
1,N=C(/C=C/c1ccc(-c2ccc(CO)cc2)cc1)Nc1ccc(Cl)cc1 [Example 111],50 to 10000 nM
2,CN1CCN(c2ccc3cc(C(=N)Nc4ccc(Cl)cc4)ccc3c2)CC1 [Example 112],50 to 10000 nM
3,COc1ccccc1C1CCN(c2ccc(/C=C/C(=N)Nc3ccc(Cl)cc3)cc2)CC1 [Example 113],50 to 10000 nM
4,N=C(/C=C/c1ccccc1)Nc1ccc(Cl)cc1 [Example 114],50 to 10000 nM
5,CCCCN(CCCC)c1ccc(/C=C/C(=N)Nc2ccc(Cl)cc2)cc1 [Example 115],50 to 10000 nM
6,N=C(/C=C/c1ccc(CN2CCOCC2)cc1)Nc1ccc(Cl)cc1 [Example 116],50 to 10000 nM
7,COc1ccc(NC(=N)/C=C/c2ccccc2)cc1 [Example 117],50 to 10000 nM
8,N=C(Nc1ccc(Cl)cc1)c1ccc(-c2ccccc2)cc1 [Example 118],50 to 10000 nM
9,COc1ccc2cc(C(=N)Nc3ccc(Cl)cc3F)ccc2c1 [Example 119],50 to 10000 nM
10,N=C(/C=C/c1ccc(-c2cccc(C(=O)O)c2)cc1)Nc1ccc(Cl)cc1 [Example 120],50 to 10000 nM
11,COc1ccc(NC(=N)/C=C/c2ccc(Cc3cccnc3)cc2)cc1 [Example 121],50 to 10000 nM
12,N=C(/C=C/c1ccc(-c2ccc(C(F)(F)F)cc2)cc1)Nc1ccc(Cl)cc1 [Example 122],50 to 10000 nM
13,N=C(/C=C/c1ccc(N2CCNCC2)cc1Cl)Nc1ccc(O)c(Cl)c1 [Example 123],50 to 10000 nM
14,N=C(/C=C/c1ccc(Cc2cccnc2)cc1)Nc1ccc(OC(F)(F)F)cc1 [Example 124],50 to 10000 nM
15,"CO/N=C(/C)c1ccc(-c2ccc(/C=C/C(=N)Nc3ccc(Cl)cc3)cc2)cc1 [Example 125, N-(4-chloro-phenyl)-3-[4′-(1-methoxyimino-ethyl)-biphenyl-4-yl]-acrylamidine]",50 to 10000 nM
16,N=C(/C=C/c1ccc(N2CCCC3CCCCC32)cc1)Nc1ccc(Cl)cc1 (centres unmarked) [Example 126],50 to 10000 nM
17,N=C(Nc1ccc(Cl)cc1)c1ccc2ccccc2n1 [Example 127],50 to 10000 nM
18,N=C(/C=C/c1ccc(Cc2cccnc2)cc1)Nc1ccc(Cl)c(O)c1 [Example 128],50 to 10000 nM
19,COc1ccc(/C=C/C(=N)Nc2ccc(OC)c(OC)c2)cc1 [Example 129],50 to 10000 nM
20,COc1ccc(/C=C/C(=N)Nc2ccc(C)c([N+](=O)[O-])c2)cc1 [Example 130],50 to 10000 nM
21,CC(C)(C)c1ccc(-c2ccc(/C=C/C(=N)Nc3ccc(Cl)cc3)cc2)cc1 [Example 131],50 to 10000 nM
22,N=C(Cc1ccc2ccccc2c1)Nc1ccc(Cl)cc1 [Example 132],50 to 10000 nM
23,COc1ccc(/C=C/C(=N)Nc2ccc(C(C)(C)C)cc2)cc1 [Example 133],50 to 10000 nM
24,N=C(CCc1ccc(Cc2c[nH]cn2)cc1)Nc1ccc(Cl)cc1 [Example 134],50 to 10000 nM

# Same assay, conditions: human D1 receptor, [3H] SCH 23390; read-out: Ki (D1) value
row,Compound,Ki
1,"N=C(/C=C/c1ccc(N2CCNCC2)cc1Cl)Nc1ccc(Cl)cc1 [Example 42, (E)-N-(4-Chlorophenyl)-3-[2-chloro-4(piperazin-1-yl)phenyl]-2-propenimidamide]",0.9 nM

# Target: T2, human Dopamine D2 receptor (Homo sapiens, UniProt P14416)
# T2 construct: expressed in transfected cells; host or cells: Ltk- cells (mouse fibroblasts), membrane preparation
# T2 sequence (P14416 whole entry): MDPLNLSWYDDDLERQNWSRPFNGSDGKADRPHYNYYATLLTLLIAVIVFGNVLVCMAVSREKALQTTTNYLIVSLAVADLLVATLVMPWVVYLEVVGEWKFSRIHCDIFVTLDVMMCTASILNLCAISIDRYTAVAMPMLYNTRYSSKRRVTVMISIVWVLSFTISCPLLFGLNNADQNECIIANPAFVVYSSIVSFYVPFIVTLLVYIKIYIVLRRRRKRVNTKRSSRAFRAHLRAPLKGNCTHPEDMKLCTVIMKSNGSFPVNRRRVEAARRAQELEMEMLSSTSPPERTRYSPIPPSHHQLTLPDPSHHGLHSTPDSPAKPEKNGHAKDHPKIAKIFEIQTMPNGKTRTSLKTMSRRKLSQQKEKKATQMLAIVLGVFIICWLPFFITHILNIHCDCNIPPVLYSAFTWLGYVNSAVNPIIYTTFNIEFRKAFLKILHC
# Assay: radioligand binding competition assay, displacement of [3H] Methylspiperone from D2 receptor (long variant, Ltk-cells membranes)
# Settings: Ki for D2 divided by Ki for D1
# Source text: as §1, §2, §3
row,Compound,D2:D1 ratio value
1,"N=C(/C=C/c1ccc(N2CCNCC2)cc1Cl)Nc1ccc(Cl)cc1 [Example 42, (E)-N-(4-Chlorophenyl)-3-[2-chloro-4(piperazin-1-yl)phenyl]-2-propenimidamide]",1258.5
